The record followed here is BindingDB's records for patent US10052306 (CADENT THERAPEUTICS, INC., 2018).

This test has as its target Glutamate receptor ionotropic, NMDA 2B (Homo sapiens, UniProt Q13224). Description: FDSS Assay.

Chain of Glutamate receptor ionotropic, NMDA 2B (Q13224 whole entry): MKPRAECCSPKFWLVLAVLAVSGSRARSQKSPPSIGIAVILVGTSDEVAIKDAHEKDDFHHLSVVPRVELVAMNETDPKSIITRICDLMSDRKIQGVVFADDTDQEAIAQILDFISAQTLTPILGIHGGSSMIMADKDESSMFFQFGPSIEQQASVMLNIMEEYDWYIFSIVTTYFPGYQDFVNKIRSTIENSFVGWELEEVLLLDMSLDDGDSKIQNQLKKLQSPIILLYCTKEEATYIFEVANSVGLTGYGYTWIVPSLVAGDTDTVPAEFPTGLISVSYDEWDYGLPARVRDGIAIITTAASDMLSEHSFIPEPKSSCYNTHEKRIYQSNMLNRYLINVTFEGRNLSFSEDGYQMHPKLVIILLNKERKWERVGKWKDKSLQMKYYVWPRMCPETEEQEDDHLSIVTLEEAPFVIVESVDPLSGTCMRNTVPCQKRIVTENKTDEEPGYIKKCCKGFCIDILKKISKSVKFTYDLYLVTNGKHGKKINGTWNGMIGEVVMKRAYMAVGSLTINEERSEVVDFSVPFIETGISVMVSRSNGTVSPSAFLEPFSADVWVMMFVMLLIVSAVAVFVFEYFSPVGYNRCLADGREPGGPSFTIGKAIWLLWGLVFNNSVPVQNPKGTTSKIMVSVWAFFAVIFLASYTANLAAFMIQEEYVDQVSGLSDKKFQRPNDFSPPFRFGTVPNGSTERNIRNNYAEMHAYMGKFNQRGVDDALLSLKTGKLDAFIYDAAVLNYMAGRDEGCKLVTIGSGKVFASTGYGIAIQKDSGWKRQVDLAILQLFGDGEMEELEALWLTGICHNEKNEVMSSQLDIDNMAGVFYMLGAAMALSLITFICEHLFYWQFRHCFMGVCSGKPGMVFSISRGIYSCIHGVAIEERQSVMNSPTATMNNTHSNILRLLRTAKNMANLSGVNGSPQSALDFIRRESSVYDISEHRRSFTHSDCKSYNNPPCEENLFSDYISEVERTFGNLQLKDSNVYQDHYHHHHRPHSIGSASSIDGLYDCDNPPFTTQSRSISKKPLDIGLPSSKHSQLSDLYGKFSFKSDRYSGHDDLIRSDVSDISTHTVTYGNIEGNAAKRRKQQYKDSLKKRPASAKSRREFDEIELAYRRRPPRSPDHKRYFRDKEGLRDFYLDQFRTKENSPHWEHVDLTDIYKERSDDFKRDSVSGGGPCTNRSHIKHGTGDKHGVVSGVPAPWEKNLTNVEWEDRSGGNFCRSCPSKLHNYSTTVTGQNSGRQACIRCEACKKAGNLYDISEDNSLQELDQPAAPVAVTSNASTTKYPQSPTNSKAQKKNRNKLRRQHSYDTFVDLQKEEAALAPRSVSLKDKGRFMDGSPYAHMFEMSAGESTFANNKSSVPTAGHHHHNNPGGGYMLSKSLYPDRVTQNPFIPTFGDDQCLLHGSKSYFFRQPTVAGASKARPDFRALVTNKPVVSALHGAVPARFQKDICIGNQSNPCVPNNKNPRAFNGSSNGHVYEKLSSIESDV
Protocol: To each well of the plate, 10 μL test compound, control (MK801) or HHnoCa buffer was added to a final concentration of 10 μM with a final concentration of DMSO of 0.1%. Following 10 minutes pre-incubation in the dark, plates are loaded onto the Hamamatsu FDSS 6000. After collecting baseline fluorescence images, 3 μM glutamate, 3 glycine, and 1 mM Ca2+ in HHnoCa buffer is added to each well, and Ca2+ is recorded for 3 minutes. Data were processed by computing ratio of fluorescence at the end of data collection to baseline fluorescence to assess degree of Ca′ influx inhibition relative to that observed in MK801.

Consider `O=C(CN1C[C@@H]2C[C@@](O)(c3ccccc3)C[C@@H]2C1)c1ccc(O)cc1` [US10052306, 65], for which half-maximal inhibition (IC50) was put at 10 µM.
